Where two headings read alike, the source gives them in different places.
Tests used:
[1] = system: release of gamma-aminobutyric acid (GABA); conditions: cited from earlier work
D2 receptor = conditions: striatal slices from reserpinized rats (ref. 33); cited from earlier work
C57/BL6 mice = assay: Forced swim test; type: in vivo; conditions: FIG. 2 doses: imipramine 20 mg/kg, istradefylline 0.1 mg/kg, varenicline 0.17 mg/kg, alone or combined
Experimental: FIG. 2 is a bar graph of the time during a forced swim test after treatment with saline, 20 mg/kg for imipramine, 0.1 mg/kg for istradefylline, 0.17 mg/kg for varenicline, and a combination of 0.1 mg/kg for istradefylline and 0.17 mg/kg for varenicline.
Without being bound by a particular theory, the inventors theorized that an increase in dopamine release, when coupled with A2A antagonism, could result in an antidepressant response-essentially aiming to replace direct D2 agonism with a drug that leads to its release and to an increase in D2/D3 receptor availability. […] Of note, however, varenicline has been approved in humans for smoking cessation, and initially carried a black box for increased risk for development of depression, a seemingly opposite outcome to our goal. To determine whether such a combination is viable, we conducted forced swim tests in C57/BL6 mice. […] One such example is 5 mg-40 mg of istradefylline together with 0.25-3 mg of varenicline.
To determine whether such a combination is viable, forced swim tests in C57/BL6 mice were conducted. The forced-swim test is used to assess depressive-like behavior in mice. The time spent immobile is considered a measure of depressive-like behavior. Immobility scores for each mouse were determined by manual scoring.

D2/D3 receptor = conditions: rodents (refs. 45, 46); cited from earlier work
dopamine release [2] = conditions: rodents (ref. 43); cited from earlier work
Parkinson's models = Parkinson's models (ref. 47); cited from earlier work
dopamine release [3] = conditions: humans (ref. 44); cited from earlier work

For `NC(C(=O)O)c1cc(O)ccc1Cl` (racemic) [CHPG, (RS)-2-chloro-5-hydroxyphenylglycine], the “effect on GABA release by itself” value ([1]; alone (ref. 38)) is listed as “ineffective by itself” and the “effect on quinpirole-induced change of neuronal activity (GABA release)” value ([1]; with the D2/D3 agonist quinpirole (ref. 38)) is listed as “able to counteract the effects”.

In the case of `CCNC(=O)[C@H]1O[C@@H](n2cnc3c(N)nc(NCCc4ccc(CCC(=O)O)cc4)nc32)[C@H](O)[C@@H]1O` [CGS 21680], the “effect on affinity of the D2 receptor for the D2/D3 agonist quinpirole” value (D2 receptor) is given as “decreased the affinity”.

In the case of `Nc1nc(NCCc2ccc(O)cc2)nc2nc(-c3ccco3)nn12` [ZM 241385], the “effect on affinity of the D2 receptor for the D2/D3 agonist quinpirole” value (D2 receptor) is given as “increased the affinity”.

With `CN(C)CCCN1c2ccccc2CCc2ccccc21` [imipramine] the “antidepressant response (time spent immobile) in forced swim test” value (C57/BL6 mice) was “decrease in immobility”.

For `c1cnc2cc3c(cc2n1)[C@@H]1CNC[C@H]3C1` [varenicline], the D2/D3 receptor availability (D2/D3 receptor) is given as “increase D2/D3 receptor availability”, the dopamine release (dopamine release [2]) is given as “increase dopamine release” and the motor functioning (Parkinson's models) is given as “improve motor functioning”. For the same molecule, the dopamine release (dopamine release [3]) was “increase dopamine release” and the “antidepressant response (time spent immobile) in forced swim test” value (C57/BL6 mice) was “by themselves ineffective”.

Reference: patent publication US20260137689A1, “INTEGRATION OF MOLECULAR MECHANISMS IN THE STRIATUM AS A COMBINATION DRUG STRATEGY FOR THE TREATMENT OF PSYCHIATRIC AND NEUROLOGICAL DISORDERS IN WHICH ANHEDONIA OR MOTIVATION-RELATED DYSFUNCTION EXISTS” (Alto Neuroscience, Inc., priority 2021, published 2026)
